PMC5442763, “Selective Inhibition of ADAM17 Efficiently Mediates Glycoprotein Ibα Retention During Ex Vivo Generation of Human Induced Pluripotent Stem Cell‐Derived Platelets” (Stem Cells Translational Medicine, 2016)
Peptide text beside a SMILES is read from it. * marks the point of attachment. Cbz = O=C(OCc1ccccc1)*; CH2F = FC*

Assays:
[1] = test system: human iPSC-derived MKs and platelets; assay: Generation of MKs and platelets from human iPSC-derived HPCs at 37°C, flow cytometry; assay type: cell-based; details: for GPIbα retention by iPSC-derived platelets, inhibitor only during platelet production phase: days 21–23 or 24, KP-457 15, BIRB796 10, U0126 10, BMS345541 10, Z-VAD 10, Ro31-8220 3 μmol/l; for number of CD41a+ total iPSC platelets / retention of GPIbα expression on CD41a+ iPSC-derived platelets / number of CD41a+ iPSC-derived MKs: KP-457 15 μmol/l, GM-6001 50 μmol/l, p38 MAP kinase inhibitor 10 μmol/l; for number of CD41a+ iPSC-derived MKs: MK differentiation and platelet production phases
Description: Directed differentiation to MKs and platelets from iPSCs and ESCs was performed as described previously. Briefly, 3 × 10^4 HPCs derived from iPS‐sacs on C3H10T1/2 feeder cells in the presence of 20 ng/ml vascular endothelial growth factor were transferred on day 14 of culture onto C3H10T1/2 feeder cells in differentiation medium supplemented with 50 ng/ml stem cell factor, 100 ng/ml thrombopoietin, 25 U/ml heparin sodium, and test compounds at 24°C or 37°C. The medium was refreshed every 3 days, and nonadherent cells were collected and analyzed on days 22–24.
(§1) Flow cytometric analysis was performed as previously described. Briefly, iPSC‐ and ESC‐derived MKs on days 22–24 and platelets in their supernatants were stained with combinations of antibodies for 30 minutes on ice (for MKs) or at room temperature (for platelets). Samples of MKs/platelets were then washed, diluted with staining medium (phosphate‐buffered saline containing 3% fetal bovine serum), and analyzed using flow cytometry (FACSAria; BD). Trucount tubes (BD) were used to quantify the MKs and platelets.

[2] = test system: mouse ESC-derived platelets; design: method as in PMID 18663123; details: 100 µmol/l; cited from earlier work
human MMP17 = molecular target: T1, human MMP17 (Homo sapiens, UniProt Q9ULZ9); assay: MMP and ADAM activity assay (fluorescence-based): MMP17; assay type: biochemical; details: cell-free fluorescence assay
T1 construct: purchased R&D Systems
Description: (§2) KP‐457 and GM‐6001 were tested for their ability to inhibit MMP‐ and ADAM‐catalyzed cleavage of substrates in a fluorescence‐based assay. Human ADAM17, ADAM10, and MMP17 were from R&D Systems (Minneapolis, MN, http://www.rndsystems.com), and human MMP1, MMP2, MMP3, MMP8, MMP9, MMP13, and MMP14 were from EMD Millipore. MMP1, MMP2, MMP8, MMP9, MMP13, and MMP17 were activated using p‐aminophenylmercuric acetate (Sigma‐Aldrich) before testing. Fluorogenic substrates for measuring activity of ADAM10 and ADAM17 [Nma‐[…](Dnp)r‐NH2, based on the cleavage site of TNF‐α]; MMP1, MMP9, MMP13, and MMP14 [Dnp‐P‐Cha‐GC(Me)HAK(N‐Me‐Abz)‐NH2]; MMP3 [MOCAc‐RPKPVE‐Nva‐WRK(Dnp)‐NH2]; and MMP2, MMP8, and MMP17 [MOCAc‐PLGL‐A2pr(Dnp)‐AR‐NH2] were all provided by Peptide Institute (Osaka, Japan, https://www.peptide.co.jp/en) and used as substrates. In addition, inhibitory activities were measured using LC/MS/MS with a GPIbα‐based substrate peptide ([…]), a C terminal‐based standard peptide ([…]), and an internal standard peptide ([…]). These peptides were synthetized by Scrum (Tokyo, Japan, http://www.scrum‐net.co.jp/english/top_en.htm).

Human ADAM17 [3] = molecular target: T2, Human ADAM17 (Homo sapiens, UniProt P78536); assay: Cleavage of GPIbα-based substrate peptide by ADAM17 (LC/MS/MS); assay type: biochemical; details: read-out: IC50, inhibition of C-terminal cleavage of the GPIbα sequence by ADAM17
T2 construct: purchased R&D Systems
From the text: as §2, with “Human” for “KP‐457 and GM‐6001 were tested for their ability to inhibit MMP‐ and ADAM‐catalyzed cleavage of substrates in a fluorescence‐based assay. Human”
(1 picture or pasted object on this page, not shown here)

human MMP13 = molecular target: T3, human MMP13 (Homo sapiens, UniProt P45452); assay: MMP and ADAM activity assay (fluorescence-based): MMP13; assay type: biochemical; details: cell-free fluorescence assay
T3 construct: purchased EMD Millipore
From the text: as §2, with “Human” for “KP‐457 and GM‐6001 were tested for their ability to inhibit MMP‐ and ADAM‐catalyzed cleavage of substrates in a fluorescence‐based assay. Human”

Human ADAM17 [4] = molecular target: T2, Human ADAM17; assay: MMP and ADAM activity assay (fluorescence-based, cell-free): ADAM17; assay type: biochemical; details: cell-free fluorescence assay, TNF-α cleavage site substrate
From the text: as §2, with “Human” for “KP‐457 and GM‐6001 were tested for their ability to inhibit MMP‐ and ADAM‐catalyzed cleavage of substrates in a fluorescence‐based assay. Human”

human MMP3 = molecular target: T4, human MMP3 (Homo sapiens, UniProt P08254); assay: MMP and ADAM activity assay (fluorescence-based): MMP3; assay type: biochemical; details: cell-free fluorescence assay
T4 construct: purchased EMD Millipore
Description: as §2

human MMP14 = molecular target: T5, human MMP14 (Homo sapiens, UniProt P50281); assay: MMP and ADAM activity assay (fluorescence-based): MMP14; assay type: biochemical; details: cell-free fluorescence assay
T5 construct: purchased EMD Millipore
Description: as §2

human ADAM10 = molecular target: T6, human ADAM10 (Homo sapiens, UniProt O14672); assay: MMP and ADAM activity assay (fluorescence-based): ADAM10; assay type: biochemical; details: cell-free fluorescence assay
T6 construct: purchased R&D Systems
Description: as §2

ADAM17 = test system: ADAM17; design: method as in PMID 25049354; details: cited from earlier work
human washed platelets = assay: CCCP-induced GPIbα shedding from washed platelets; assay type: cell-based; details: relative to maximum inhibition elicited by KP-457 or GM-6001
Description: as §1
Washed platelets were prepared as described elsewhere.

mouse platelets = test system: mouse platelets; design: method as in PMID 23801636; details: cited from earlier work
platelet aggregation = assay: Platelet aggregation induced by thrombin or collagen; assay type: cell-based

T2 sequence (P78536 215-824): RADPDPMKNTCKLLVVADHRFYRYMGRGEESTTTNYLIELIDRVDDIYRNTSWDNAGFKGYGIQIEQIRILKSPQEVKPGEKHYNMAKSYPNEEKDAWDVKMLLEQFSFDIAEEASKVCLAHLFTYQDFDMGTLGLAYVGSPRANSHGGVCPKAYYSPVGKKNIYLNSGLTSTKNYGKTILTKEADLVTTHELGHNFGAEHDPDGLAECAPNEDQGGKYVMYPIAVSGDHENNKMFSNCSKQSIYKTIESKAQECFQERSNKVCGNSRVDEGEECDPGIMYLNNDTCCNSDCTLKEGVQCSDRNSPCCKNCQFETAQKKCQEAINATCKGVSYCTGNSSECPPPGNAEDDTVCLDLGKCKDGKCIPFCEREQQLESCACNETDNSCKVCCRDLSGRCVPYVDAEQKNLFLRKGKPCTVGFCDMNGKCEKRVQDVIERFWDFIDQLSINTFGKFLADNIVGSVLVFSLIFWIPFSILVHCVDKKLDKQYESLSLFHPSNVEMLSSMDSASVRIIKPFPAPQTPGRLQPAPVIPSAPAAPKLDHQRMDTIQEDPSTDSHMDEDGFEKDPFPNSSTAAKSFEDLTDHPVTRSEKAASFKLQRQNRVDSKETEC
T6 sequence (O14672 214-748): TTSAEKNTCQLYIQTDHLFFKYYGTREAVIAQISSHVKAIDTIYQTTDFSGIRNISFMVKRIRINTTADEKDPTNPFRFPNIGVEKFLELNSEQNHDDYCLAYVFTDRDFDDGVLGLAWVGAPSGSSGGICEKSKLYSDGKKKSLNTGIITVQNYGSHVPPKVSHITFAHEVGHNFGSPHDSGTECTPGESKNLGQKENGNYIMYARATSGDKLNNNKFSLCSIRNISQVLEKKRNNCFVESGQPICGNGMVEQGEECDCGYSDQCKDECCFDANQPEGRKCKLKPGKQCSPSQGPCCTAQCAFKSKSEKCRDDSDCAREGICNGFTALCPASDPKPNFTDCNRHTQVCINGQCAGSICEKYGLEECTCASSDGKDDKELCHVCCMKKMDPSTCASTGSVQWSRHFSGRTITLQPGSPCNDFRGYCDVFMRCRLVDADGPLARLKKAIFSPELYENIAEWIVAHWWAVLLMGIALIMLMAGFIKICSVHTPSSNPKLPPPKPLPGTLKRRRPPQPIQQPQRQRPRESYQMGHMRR
T1 sequence (Q9ULZ9 126-565 limits assumed): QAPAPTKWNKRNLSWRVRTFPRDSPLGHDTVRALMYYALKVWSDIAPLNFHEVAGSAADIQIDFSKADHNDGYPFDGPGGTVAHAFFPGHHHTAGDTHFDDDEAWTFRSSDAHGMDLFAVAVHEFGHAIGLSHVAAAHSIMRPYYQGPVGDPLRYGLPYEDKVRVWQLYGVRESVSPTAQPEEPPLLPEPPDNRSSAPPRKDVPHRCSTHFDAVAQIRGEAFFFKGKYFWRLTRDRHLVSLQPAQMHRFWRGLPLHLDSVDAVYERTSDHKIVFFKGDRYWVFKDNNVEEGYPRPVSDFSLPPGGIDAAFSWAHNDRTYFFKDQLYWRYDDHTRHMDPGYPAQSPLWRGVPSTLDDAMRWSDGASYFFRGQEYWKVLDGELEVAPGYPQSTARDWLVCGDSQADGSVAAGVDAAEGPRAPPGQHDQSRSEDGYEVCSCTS
T4 sequence (P08254 100-477): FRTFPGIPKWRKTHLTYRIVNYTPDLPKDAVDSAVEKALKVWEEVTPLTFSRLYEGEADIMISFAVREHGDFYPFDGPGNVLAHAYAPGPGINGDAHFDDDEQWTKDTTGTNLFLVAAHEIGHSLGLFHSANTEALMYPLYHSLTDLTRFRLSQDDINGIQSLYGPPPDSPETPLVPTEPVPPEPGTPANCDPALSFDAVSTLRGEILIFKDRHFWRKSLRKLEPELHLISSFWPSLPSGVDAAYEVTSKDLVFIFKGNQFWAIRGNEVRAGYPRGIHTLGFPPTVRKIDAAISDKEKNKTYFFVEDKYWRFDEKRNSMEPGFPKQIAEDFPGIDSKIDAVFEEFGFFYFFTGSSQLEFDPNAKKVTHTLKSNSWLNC

For `CC(NC(=O)C(NC(=O)OCc1ccccc1)C(C)C)C(=O)NC(CC(=O)O)C(=O)CF` (stereo not drawn) [Z‐VAD] (Cbz-Val-Ala-Asp-CH2F; configuration not given here), the “GPIbα retention by iPSC-derived platelets, inhibitor only during platelet production phase” value [1] was “failed to prevent”.

For `Cn1cc(C2=C(c3cn(CCCSC(=N)N)c4ccccc34)C(=O)NC2=O)c2ccccc21` [Ro31‐8220], the “GPIbα retention by iPSC-derived platelets, inhibitor only during platelet production phase” value [1] was “failed to prevent”.

With `Cc1ccc2nc(NCCN)c3ncc(C)n3c2c1` [BMS345541] the “GPIbα retention by iPSC-derived platelets, inhibitor only during platelet production phase” value [1] was “failed to prevent”.

In the case of `CNC(=O)[C@H](Cc1c[nH]c2ccccc12)NC(=O)[C@@H](CC(=O)NO)CC(C)C` [GM-6001], the “GPVI shedding during platelet generation from mouse ESCs” value [2] is listed as “partially inhibited”, the “number of CD41a+ total iPSC platelets” value [1] is listed as “no significant effect” and the “retention of GPIbα expression on CD41a+ iPSC-derived platelets” value (from here on “retention of GPIbα expression”) [1] is listed as “able to retain”. The “number of CD41a+ iPSC-derived MKs” value [1] was “no significant effect”, the IC50 (human MMP17) was 5.16 nM and the IC50 (Human ADAM17 [3]) was 53.8 nM. It also gave an IC50 (human MMP13) of 0.435 nM, an IC50 (Human ADAM17 [4]) of 163 nM and an IC50 (human MMP3) of 79.8 nM. It also gave an IC50 (human MMP14) of 2.96 nM and an IC50 (human ADAM10) of 642 nM.

For `COc1ccc(S(=O)(=O)N2Cc3ccccc3C[C@@H]2C(=O)NO)cc1` [M8I], the ADAM17 inhibition (ADAM17) is listed as “potently inhibits ADAM17”.

In the case of `C[S+]([O-])c1ccc(-c2nc(-c3ccncc3)c(-c3ccc(F)cc3)[nH]2)cc1` (centres unmarked) [SB203580], the “plateau of the inhibitory effect on CCCP-induced GPIbα shedding” value (human washed platelets) is reported as “around half the maximum inhibition”, the “number of CD41a+ total iPSC platelets” value [1] is reported as “increased” and the “retention of GPIbα expression” value [1] is reported as “failed to preserve”. For the same compound, the “number of CD41a+ iPSC-derived MKs” value [1] was “increased”, the “suppression of thrombin-induced GPIbα shedding from mouse platelets compared with GM-6001” value (mouse platelets) was “less effectively” and the “effect on collagen-induced platelet aggregation” value (platelet aggregation) was “diminished”.

In the case of `N#CC(=C(/N)Sc1ccccc1N)/C(C#N)=C(/N)Sc1ccccc1N` [U0126], the “GPIbα retention by iPSC-derived platelets, inhibitor only during platelet production phase” value [1] is reported as “failed to prevent”.

In the case of `Cc1ccc(-n2nc(C(C)(C)C)cc2NC(=O)Nc2ccc(OCCN3CCOCC3)c3ccccc23)cc1` [BIRB796], the “plateau of the inhibitory effect on CCCP-induced GPIbα shedding” value (human washed platelets) is reported as “around half the maximum inhibition”, the “GPIbα+ population in human iPSC-derived CD41a+ platelets” value ([1]; BIRB796 10 μmol/l, representative FACS plot, vehicle 48.3%) is reported as 48.0% and the “number of CD41a+ total iPSC platelets” value [1] is reported as “increased”. For the same compound, the “retention of GPIbα expression” value [1] was “failed to preserve”, the “number of CD41a+ iPSC-derived MKs” value [1] was “increased” and the “GPIbα retention by iPSC-derived platelets, inhibitor only during platelet production phase” value [1] was “failed to prevent”. The “effect on collagen-induced platelet aggregation” value (platelet aggregation) was “diminished”.
